# “And” between values parts separate entries of the source, which are not always exact repeats. Equal entries are not always repeated.
# Legend:
# [1] = tested on: normal mouse splenocytes; assay: Cytokine release from murine splenocytes; assay type: cell-based, C57BL6 mice; conditions: 24 hours culture with test compound
# Experimental: The ability of compounds to stimulate cytokine release from splenocytes can be assessed in a mouse model. Spleen cells harvested from C57BL6 mice are cultured for 24 hours in RPMI 1640 cell culture medium containing 5% FBS, 1 mM sodium pyruvate, 2 mM L-glutamine, 100 U/ml penicillin/streptomycin and 50 μM beta-mercaptoethanol, various concentrations of test compound for 20-24 hours, after which the cell culture supernatant is tested for the presence of cytokines.
# Spleen cells harvested from mice were cultured for 24 house with test compound and the supernatant was tested for release of cytokines.
# [2] = tested on: THP-1 cells; assay: TNF-alpha promoter secreted alkaline phosphatase (TNF-PLAP) reporter in THP-1 cells; assay type: cell-based, human; conditions: for stimulation of alkaline phosphatase expression from TNF promoter reporter (TNF-PLAP): absence and presence of 10% serum, FIG. 3
# Experimental: Similar results can be obtained when compounds of the invention are tested in a cell-culture model. In this assay, compounds of the invention are tested for their ability to stimulate secretion of alkaline phosphatase from THP-1 cells that have been transfected with the gene for secreted alkaline phosphatase under the control of the TNF-alpha promoter, as described in detail in Goto et al., Molecular Pharmacology 49; 860-873 (1996). In this assay, however, the effects of removing serum^1—a condition that may more-likely mimic a subcutaneous environment—can be evaluated. As shown in FIG. 2 and described in Table 1, results from these assays indicate that compounds of the invention stimulate induction of genes under the control of the TNF-alpha promoter when added to cells in the absence as well as the presence of serum. ^1 This is important to determine if serum components such as lipopolysaccharide binding protein are necessary for drug activity.
# [3] = tested on: mouse macrophage line RAW 264.7; assay: Tolerization to TLR family ligands, TNF-alpha release; assay type: cell-based; conditions: pretreated 24 hours at 0.1 μg/mL
# Experimental: Cells of the mouse macrophage line RAW 264.7 were plated in RPMI 1640 complete culture medium (10% fetal bovine serum, 1 mM sodium pyruvate, 2 mM L-glutamine, 100 U/mL penicillin/streptomycin and 50 μM β-mercaptoethanol). Cells were treated for 24 hours with the TLR4 ligand ER-803022 at 0.1 μg/mL by addition of a concentrated stock solution. Negative control cells were treated with an equivalent volume of PBS. After 24 hours, cells were washed twice in RPMI 1640 complete medium and incubated in medium alone for 3 hours. Cultures were then restimulated with the following synthetic TLR ligands: lipopeptide (S-lipo, a ligand for TLR2) at 0.1 μg/mL, ER-803022 at 0.1 μg/mL, a mouse CpG oligonucleotide of the sequence […] (a ligand of murine TLR9) at 0.5 μg/mL, or PBS. Supernatants were taken at 3 and 4 hours and cytokine levels were determined by ELISA.
# [4] = tested on: Human Whole Blood; assay: Cytokine release in human whole blood (ELISA); assay type: cell-based; conditions: for TNF-alpha release in whole blood at 10 μM compound (% of 10 ng/ml LPS response): compounds tested at 10 μM, compared to 10 ng/ml LPS, 3-hour incubation; for EC50: whole blood, vs. % of LPS at 10 ng/ml, read-out: WB ED50 vs LPS@ 10 ng/ml
# Experimental: The most readily available human system to test compound activity on monocytes/macrophages is in whole blood. Various concentrations of compounds of the invention were added as 10× stocks in 50 μl of Ca^++, Mg^++-free Hank's balanced salt solution (HBSS) followed by 50 μl of HBSS into 400 μl of heparinized whole blood obtained from normal volunteers (18-51 years old; 110-230 lb.) into the wells of plastic assay plates, for a total volume of 500 μl/well (final concentration of whole blood was 80%). After a 3-hour incubation with gentle shaking at 37° C. in a 5% CO2 atmosphere, the assay plates were centrifuged at 1000×g for 10 min. at 4° C. and plasma was drawn off and frozen at −80° C. Plasma samples were analyzed for TNF-alpha, IL-10, and IL-12 by ELISA (Genzyme Corp., Cambridge, Mass.). Each assay point was tested in triplicate.
# This stimulatory activity can be compared to that of 10 ng/ml endotoxin (or LPS) present in similar incubations in the same assay.
# [5] = tested on: EGFRvIII peptide; assay: EGFRvIII peptide-specific antibody titers after immunization (ELISA); assay type: in vivo, C57/BL6J mice; conditions: s.c. with 25 μg peptide-KLH, 804057 3 μg, GM-CSF 5 μg
# Excerpt: To determine whether an adjuvant can enhance the effect of an oncology antigen (i.e., an antigen that can be used to vaccinate a subject individual against a cancer), C57/BL6J mice were immunized subcutaneously with a tumor-associated peptide, LEEKKGNYVVTDHC (SEQ ID NO:2) (derived from a mutant form of EGFR, […]) conjugated to the protein carrier keyhole limpet hemocyanin (KLH), with or without Compound 804057 or murine GM-CSF, a cytokine used in cancer vaccine trials to boost immune response. Compound 804057 was dosed at 3 μg, GM-CSF at 5 μg and the peptide-KLH conjugate at 25 μg per dose. Mice were immunized three times at intervals of three weeks. Serum was prepared from mice two weeks after each immunization and tested for […] peptide-specific antibodies using ELISA on plates coated with EGFRvIII peptide conjugated to bovine serum albumin. The results in Table 3 are presented as titers from individual animals. The titer is defined as the last serum dilution at which a signal at 0.25 OD units above background was observed.
# [6] = titer = last serum dilution 0.25 OD above background
molecule,measurement,setting,value
CCCCCC/C=C\CCCC(=O)O[C@H](CCCCCCC)CCOCC(COP(=O)([O-])OCCNC(=O)CCCCCCCCC(=O)NCCOP(=O)([O-])OCC(COCC[C@@H](CCCCCCC)OC(=O)CCC/C=C\CCCCCC)NC(=O)CC(=O)CCCCCCCCCCC)NC(=O)CC(=O)CCCCCCCCCCC.[Na+].[Na+] (stereo partly drawn) [ER 111231],IL-10 release from splenocytes,[1],stimulated
same,interferon-gamma release from splenocytes,[1],stimulated
CCCCCC/C=C\CCCC(=O)O[C@H](CCCCCCC)CCOCC(COP(=O)([O-])OCCNC(=O)NCCOP(=O)([O-])OCC(COCC[C@@H](CCCCCCC)OC(=O)CCC/C=C\CCCCCC)NC(=O)CC(=O)CCCCCCCCCCC)NC(=O)CC(=O)CCCCCCCCCCC.[Na+].[Na+] (stereo partly drawn) [ER 111232],IL-10 release from splenocytes,[1],stimulated
same,interferon-gamma release from splenocytes,[1],stimulated
same,stimulation of alkaline phosphatase expression from TNF promoter reporter (TNF-PLAP),[2],stimulation of alkaline phosphatase expression
CCCCCCCCCCCC(=O)CC(=O)NC(COCC[C@@H](CCCCCCC)OC(=O)CCCCCCCCCCC)COP(=O)([O-])OCCNC(=O)NCCOP(=O)([O-])OCC(COCC[C@@H](CCCCCCC)OC(=O)CCCCCCCCCCC)NC(=O)CC(=O)CCCCCCCCCCC.[Na+].[Na+] (stereo partly drawn) [ER 112066],IL-10 release from splenocytes,[1],stimulation of IL-10 release
same,interferon-gamma release from splenocytes,[1],stimulation of interferon-gamma release
same,stimulation of alkaline phosphatase expression from TNF promoter reporter (TNF-PLAP),[2],stimulation of alkaline phosphatase expression
CCCCCC/C=C\CCCC(=O)O[C@H](CCCCCCC)CCOCC(COP(=O)([O-])OCCNC(=O)CC(=O)NCCOP(=O)([O-])OCC(COCC[C@@H](CCCCCCC)OC(=O)CCC/C=C\CCCCCC)NC(=O)CC(=O)CCCCCCCCCCC)NC(=O)CC(=O)CCCCCCCCCCC.[Na+].[Na+] (stereo partly drawn) [ER 113651],IL-10 release from splenocytes,[1],stimulated
same,interferon-gamma release from splenocytes,[1],stimulated
CCCCCCCCCCCCCC(=O)N[C@H](COCC[C@@H](CCCCCCC)OC(=O)CCCCCCCCCCC)COP(=O)([O-])OCCNC(=O)NCCOP(=O)([O-])OC[C@@H](COCC[C@@H](CCCCCCC)OC(=O)CCCCCCCCCCC)NC(=O)CCCCCCCCCCCCC.[Na+].[Na+] [ER 803022],"TNF-alpha release in response to CpG oligonucleotide, a TLR9 ligand",[3]; restimulated with CpG 0.5 μg/mL,diminished release of TNF-alpha
same,TNF-alpha release upon subsequent exposure to ER803022 (TLR4 ligand),"[3]; restimulated with ER-803022 0.1 μg/mL, vs not pretreated",released less TNF-alpha
same,TNF-alpha release in response to TLR2 ligand S-lipoprotein,[3]; restimulated with S-lipo 0.1 μg/mL,diminished release of TNF-alpha
CCCCCCCCCCCC(=O)CC(=O)NC(COCC[C@@H](CCCCCCC)OC(=O)CCCCCCCCCCC)COP(=O)([O-])OCCNC(=O)NCCOP(=O)([O-])OCC(COCC[C@@H](CCCCCCC)OC(=O)CCCCCCCCCCC)NC(=O)CC(=O)CCCCCCCCCCC.[Na+].[Na+] (stereo partly drawn) [compound 112066],TNF-alpha release in whole blood at 10 μM compound (% of 10 ng/ml LPS response),[4],162 % of LPS
same,EC50,[4],40 nM
same,THP-1 cell Stimulation (% of compound 100 at 10 μM) +serum,[2],330 % of compound 100 at 10 μM
CCCCCC/C=C\CCCC(=O)O[C@H](CCCCCCC)CCOCC(COP(=O)([O-])OCCNC(=O)CC(=O)NCCOP(=O)([O-])OCC(COCC[C@@H](CCCCCCC)OC(=O)CCC/C=C\CCCCCC)NC(=O)CC(=O)CCCCCCCCCCC)NC(=O)CC(=O)CCCCCCCCCCC.[Na+].[Na+] (stereo partly drawn) [compound 113651],TNF-alpha release in whole blood at 10 μM compound (% of 10 ng/ml LPS response),[4],133 ± 4.4 (n = 4) % of LPS
same,EC50,[4],700 nM
same,THP-1 cell Stimulation (% of compound 100 at 10 μM) +serum,[2],215 % of compound 100 at 10 μM
same,THP-1 cell Stimulation (% of compound 100 at 10 μM) −serum,[2]; −serum,254 % of compound 100 at 10 μM
"GM-CSF: murine GM-CSF, a cytokine used in cancer vaccine trials to boost immune response (protein, UniProt P01587 18-141, looked up) Granulocyte-macrophage …: APTRSPITVTRPWKHVEAIKEALNLLDDMPVTLNEEVEVVSNEFSFKKLTCVQTRLKIFEQGLRGNFTKLKGALNMTASYYQTYCPPTPETDCETQVTTYADFIDSLKTFLTDIPFECKKPGQK","Geometric mean titer, IgG1",[5],24000
same,"Geometric mean titer, IgG2a",[5],3568
same,"Antibody titers to EGFRvIII peptide, IgG1, individual animals",[5]; [6],12000 (3×) and 24000 (2×) and 48000 (3×)
same,"Antibody titers to EGFRvIII peptide, IgG2a, individual animals",[5]; [6],3000 (2×) and 6000 (3×) and 24000 and 750 (2×)

# — patent US7915238B2, “Immunomodulatory compounds and methods of use thereof” (Eisai R & D Management Co., Ltd., priority 1999, dated 2011)
